We go through seven compounds from patent publication US12161722B2, “Bifunctional heterocyclic compound having BTK degradation function via ubiquitin proteasome pathway, and use thereof” (KOREA RESEARCH INSTITUTE OF CHEMICAL TECHNOLOGY, priority 2021, dated 2024).

In general, DC50 refers to the concentration giving 50% degradation.

Test [1] has as its target T1, C481S BTK protein (Homo sapiens, UniProt Q06187, C481S).
T1 construct: expressed in transfected cells; host or cells: 293T BTK MUT (C481S) cells
The experiment in a line: BTK protein degradation assay (Western blotting), C481S BTK. Conditions: concentration range accounting for 50% degradation of C481S BTK protein, 293T BTK MUT (C481S) cells. In kind it is cell-based. In a few lines:
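TMD-8, RAMOS or 293T BTK C481S cells were treated 24 h with compounds from 10-fold DMSO stock series (10 to 0.0001 mM). BTK was measured by Western blot with GAPDH/β-actin references. Activity was binned by concentration giving 50% degradation: +++ (0.0001-0.01 μM), ++ (0.01-1 μM), + (1-10 μM), − (>10 μM).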
(In general: Immunoblotting shows a protein as a band on a membrane.)

Test [2] addresses T2, WT BTK protein (Homo sapiens, UniProt Q06187).
T2 construct: measured for intracellular BTK protein levels by Western blotting; endogenous in cells; host or cells: TMD-8 or RAMOS cells
The test is described as follows: BTK protein degradation assay (Western blotting), WT BTK. In kind it is cell-based. Conditions: concentration range accounting for 50% degradation of WT BTK protein, TMD-8 or RAMOS cells, 24 hours. In a few lines:
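BTK levels were read by Western blotting (GAPDH and β-actin normalisers) in RIPA lysates of TMD-8 cells exposed to compounds for 24 h at 1×10^6 cells/mL. Results scored in ranges of the concentration producing 50% loss of WT BTK.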

T1 sequence (Q06187 whole entry C481S): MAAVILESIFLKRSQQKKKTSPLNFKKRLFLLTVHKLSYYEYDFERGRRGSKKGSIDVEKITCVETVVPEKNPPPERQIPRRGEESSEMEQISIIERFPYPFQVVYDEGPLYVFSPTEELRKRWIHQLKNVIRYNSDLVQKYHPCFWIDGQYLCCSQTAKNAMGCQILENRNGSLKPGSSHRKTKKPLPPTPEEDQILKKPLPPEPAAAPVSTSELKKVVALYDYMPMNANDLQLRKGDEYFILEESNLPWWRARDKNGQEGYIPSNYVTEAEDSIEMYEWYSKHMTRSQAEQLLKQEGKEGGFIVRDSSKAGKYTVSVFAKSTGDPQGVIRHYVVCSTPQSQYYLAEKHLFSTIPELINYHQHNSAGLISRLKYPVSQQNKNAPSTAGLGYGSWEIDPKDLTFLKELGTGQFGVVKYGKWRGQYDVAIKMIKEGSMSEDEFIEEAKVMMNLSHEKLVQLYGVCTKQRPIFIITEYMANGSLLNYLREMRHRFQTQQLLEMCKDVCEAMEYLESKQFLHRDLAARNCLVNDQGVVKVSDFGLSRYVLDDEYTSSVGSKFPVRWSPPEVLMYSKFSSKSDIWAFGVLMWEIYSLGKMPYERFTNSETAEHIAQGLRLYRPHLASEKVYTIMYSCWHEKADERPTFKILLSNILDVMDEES
T2 sequence (Q06187 whole entry): as the sequence (Q06187 whole entry C481S) above, with S481C counted along it

On to `Cc1cccc(C)c1Nc1nn(C)c2nc(Nc3ccc4c(c3)CN(CC3CCN(C(=O)C5CCN(c6ccc7c(=O)n(C8CCC(=O)NC8=O)nnc7c6)CC5)CC3)CC4)ncc12` (centres unmarked) [Compound 61, 3-(7-(4-(4-((7-((3-((2,6-Dimethylphenyl)amino)-1-methyl-1H-pyrazolo[3,4-d]pyrimidin-6-yl)amino)-3,4-dihydroisoquinolin-2 (1H)-yl)methyl)piperidine-1-carbonyl)piperidin-1-yl)-4-oxobenzo[d][1,2,3]triazin-3 (4H)-yl)piperidin-2,6-one], for which the half-maximal degradation concentration (DC50) in test [1] and in test [2] was 0.1 to 10 nM each time.
As to `Cc1cccc(C)c1Nc1nn(C)c2nc(Nc3ccc4c(c3)CN(CC3CCN(C(=O)C5CCN(c6cccc7nnn(C8CCC(=O)NC8=O)c(=O)c67)CC5)CC3)CC4)ncc12` (centres unmarked) [Compound 62, 3-(5-(4-(4-((7-((3-((2,6-Dimethylphenyl)amino)-1-methyl-1H-pyrazolo[3,4-d]pyrimidin-6-yl)amino)-3,4-dihydroisoquinolin-2 (1H)-yl)methyl)piperidine-1-carbonyl)piperidin-1-yl)-4-oxobenzo[d][1,2,3]triazin-3 (4H)-yl)piperidin-2,6-one], the figures for the DC50 in test [1] and in test [2] were 10 to 1000 nM and 0.1 to 10 nM, respectively.
In the case of `Cc1cccc(C)c1Nc1nn(C)c2nc(Nc3ccc4c(c3)CN(CC3CCN(C(=O)CNc5ccc6c(=O)n(C7CCC(=O)NC7=O)nnc6c5)CC3)CC4)ncc12` (centres unmarked) [Compound 63, 3-(7-((2-(4-((7-((3-((2,6-Dimethylphenyl)amino)-1-methyl-1H-pyrazolo[3,4-d]pyrimidin-6-yl)amino)-3,4-dihydroisoquinolin-2 (1H)-yl)methyl)piperidin-1-yl)-2-oxoethyl)amino)-4-oxobenzo[d][1,2,3]triazin-3 (4H)-yl)piperidin-2,6-one], the DC50 in test [1] fell in the range of 10 to 1000 nM; in test [2] it was 0.1 to 10 nM.
Regarding `Cc1cccc(Cl)c1Nc1nn(C)c2nc(Nc3ccc4c(c3)CN(CC3CCN(c5ccc6c(c5)C(=O)N(C5CCC(=O)NC5=O)C6=O)CC3)CC4)ncc12` (centres unmarked) [Compound 85, 5-(4-((7-((3-((2-Chloro-6-methylphenyl)amino)-1-methyl-1H-pyrazolo[3,4-d]pyrimidin-6-yl)amino)-3,4-dihydroisoquinolin-2 (1H)-yl)methyl)piperidin-1-yl)-2-(2,6-dioxopiperidin-3-yl)isoindoline-1,3-dione], the DC50 in test [1] and in test [2] was 0.1 to 10 nM throughout.
As to `Cc1cccc(C)c1Nc1nn(C)c2nc(Nc3ccc4c(c3)CN(C3CCN(c5ccc6c(c5)C(=O)N(C5CCC(=O)NC5=O)C6=O)CC3)CC4)ncc12` (centres unmarked) [Compound 88, 5-(4-(7-((3-((2,6-dimethylphenyl)amino)-1-methyl-1H-pyrazolo[3,4-d]pyrimidin-6-yl)amino)-3,4-dihydroisoquinolin-2 (1H)-yl)piperidin-1-yl)-2-(2,6-dioxopiperidin-3-yl)isoindoline-1,3-dione], the DC50 in test [1] and in test [2] was 0.1 to 10 nM throughout.
In the case of `Cc1cccc(C)c1Nc1nn(C)c2nc(Nc3ccc4c(c3)CN(C[C@H]3CCN(c5ccc6c(c5)C(=O)N(C5CCC(=O)NC5=O)C6=O)C3)CC4)ncc12` (stereo partly drawn) [Compound 144, 5-((R)-3-((7-((3-((2,6-dimethylphenyl)amino)-1-methyl-1H-pyrazolo[3,4-d]pyrimidin-6-yl)amino)-3,4-dihydroisoquinolin-2 (1H)-yl)methyl)pyrrolidin-1-yl)-2-(2,6-dioxopiperidin-3-yl)isoindoline-1,3-dione], the half-maximal degradation concentration (DC50) in test [1] and in test [2] was 0.1 to 10 nM throughout.
As for `Cc1cccc(C)c1Nc1nn(C)c2nc(Nc3ccc4c(c3)CN(C3CN(CC5CCN(c6ccc7c(c6)C(=O)N(C6CCC(=O)NC6=O)C7=O)CC5)C3)CC4)ncc12` (centres unmarked) [Compound 149, 5-(4-((3-(7-((3-((2,6-Dimethylphenyl)amino)-1-methyl-1H-pyrazolo[3,4-d]pyrimidin-6-yl)amino)-3,4-dihydroisoquinolin-2 (1H)-yl)azetidin-1-yl)methyl)piperidin-1-yl)-2-(2,6-dioxopiperidin-3-yl)isoindoline-1,3-dione], the DC50 in test [1] and in test [2] was 0.1 to 10 nM in each case.
